Common to all, as to format: cell-based, murine and human
What all share (details): GAL4-PPAR LBD chimera

For experiment [1], the target named is T1, PPAR-alpha (UniProt Q07869).
T1 sequence (Q07869 1-468): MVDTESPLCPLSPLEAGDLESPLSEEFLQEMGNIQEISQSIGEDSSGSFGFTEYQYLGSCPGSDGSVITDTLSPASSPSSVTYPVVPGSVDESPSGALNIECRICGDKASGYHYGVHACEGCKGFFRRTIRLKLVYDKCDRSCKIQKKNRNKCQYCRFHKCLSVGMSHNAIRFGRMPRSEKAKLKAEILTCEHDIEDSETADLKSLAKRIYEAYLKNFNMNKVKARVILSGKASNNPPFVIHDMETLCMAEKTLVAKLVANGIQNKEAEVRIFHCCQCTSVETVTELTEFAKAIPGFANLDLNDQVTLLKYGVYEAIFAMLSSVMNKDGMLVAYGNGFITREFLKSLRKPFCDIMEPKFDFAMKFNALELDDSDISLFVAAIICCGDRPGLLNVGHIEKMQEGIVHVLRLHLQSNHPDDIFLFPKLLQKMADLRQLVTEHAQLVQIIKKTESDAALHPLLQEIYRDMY
In words: PPAR-alpha transactivation assay (GAL4 chimera, luciferase reporter) in CV-1 cells. Put shortly: (§1)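 CV-1 cells transiently transfected with murine or human PPAR-alpha, -gamma or -delta ligand-binding domain fused to GAL4 DNA-binding domain plus a GAL4-site luciferase reporter. After replating in phenol-red-free DME with 5% delipidated calf serum, cells were exposed to compound 20-24 h; luciferase read-out gave EC50.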
(In general: Reporter assays use an easily measured gene product as a stand-in for the process of interest.)

Experiment [2] has as its target T2, PPAR-delta (UniProt Q03181).
T2 sequence (Q03181 1-441): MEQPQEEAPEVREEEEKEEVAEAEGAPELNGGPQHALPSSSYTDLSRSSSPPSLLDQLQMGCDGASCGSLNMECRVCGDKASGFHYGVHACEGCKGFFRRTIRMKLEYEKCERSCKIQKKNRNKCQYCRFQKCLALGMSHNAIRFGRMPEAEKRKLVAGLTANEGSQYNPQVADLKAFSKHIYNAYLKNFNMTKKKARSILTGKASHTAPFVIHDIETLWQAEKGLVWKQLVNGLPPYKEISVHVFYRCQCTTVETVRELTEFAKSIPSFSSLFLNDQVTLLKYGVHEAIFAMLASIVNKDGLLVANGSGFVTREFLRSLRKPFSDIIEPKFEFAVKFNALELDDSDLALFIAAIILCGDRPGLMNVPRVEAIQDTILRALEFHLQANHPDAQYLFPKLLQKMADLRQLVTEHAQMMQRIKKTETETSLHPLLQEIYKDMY
In words: PPAR-delta transactivation assay (GAL4 chimera, luciferase reporter) in CV-1 cells. The gist of the method:
as §1

In experiment [3] the target is T3, PPAR-gamma (UniProt P37231).
T3 sequence (P37231 1-505): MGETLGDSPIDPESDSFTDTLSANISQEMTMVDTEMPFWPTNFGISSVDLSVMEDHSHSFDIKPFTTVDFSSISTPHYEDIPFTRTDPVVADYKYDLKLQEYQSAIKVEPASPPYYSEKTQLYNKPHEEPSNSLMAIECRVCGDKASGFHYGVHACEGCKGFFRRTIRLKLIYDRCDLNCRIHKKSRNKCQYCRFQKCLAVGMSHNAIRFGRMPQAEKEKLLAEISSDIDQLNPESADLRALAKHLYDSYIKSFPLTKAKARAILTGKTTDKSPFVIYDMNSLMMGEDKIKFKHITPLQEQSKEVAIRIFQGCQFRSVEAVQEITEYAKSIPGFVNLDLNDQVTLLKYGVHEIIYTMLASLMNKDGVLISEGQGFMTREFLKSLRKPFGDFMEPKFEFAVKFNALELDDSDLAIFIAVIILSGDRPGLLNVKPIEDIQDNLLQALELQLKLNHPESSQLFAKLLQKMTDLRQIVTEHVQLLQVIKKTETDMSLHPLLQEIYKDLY
In words: PPAR-gamma transactivation assay (GAL4 chimera, luciferase reporter) in CV-1 cells. The gist of the method:
as §1

As a reminder, the EC50 is the concentration needed to bring the measured effect to its halfway point. A higher EC50 goes with lower potency in that assay.

Where only a bound is given, the exact number is not on record here.

In the case of `CCC1CN(c2ccc(C(F)(F)F)cc2F)CCN1S(=O)(=O)c1ccc2c(c1)C(C(=O)O)CC2` (stereo not drawn) [Example 60, 6-[2-Ethyl-4-(2-fluoro-4-trifluoromethyl-phenyl)-piperazine-1-sulfonyl]-indan-1-carboxylic acid], the half-maximal effective concentration (EC50) is < 5 µM in experiment [1], < 5 µM in experiment [2] and 5 to 100 µM in experiment [3].
Consider `C[C@H]1CN(c2ccc(Cl)c(Cl)c2)CCN1S(=O)(=O)c1ccc2c(c1)C(C(=O)O)CC2` (stereo partly drawn) [Example 61, 6-[4-(3,4-Dichloro-phenyl)-(S)-methyl-piperazine-1-sulfonyl]-indan-1-carboxylic acid], for which the EC50 in experiment [1], in experiment [2] and in experiment [3] was < 5 µM in each case.
Turning to `C[C@H]1CN(c2ccc(OC(F)(F)F)cc2)CCN1S(=O)(=O)c1ccc2c(c1)C(C(=O)O)CC2` (stereo partly drawn) [Example 62, 6-[2-(S)-Methyl-4-(4-trifluoromethoxy-phenyl)-piperazine-1-sulfonyl]-indan-1-carboxylic acid], the 50% effective concentration (EC50) in experiment [1] is < 5 µM; in experiment [2], < 5 µM; in experiment [3], 5 to 100 µM.
As to `C[C@H]1CN(c2ccc(C(F)(F)F)c(F)c2)CCN1S(=O)(=O)c1ccc2c(c1)C(C(=O)O)CC2` (stereo partly drawn) [Example 63, 6-[4-(3-Fluoro-4-trifluoromethyl-phenyl)-2-(S)-methyl-piperazine-1-sulfonyl]-indan-1-carboxylic acid], the concentration for a half-maximal effect (EC50) in experiment [1], in experiment [2] and in experiment [3] was < 5 µM in each case.
Regarding `CCC1CN(S(=O)(=O)c2ccc3c(c2)C(C(=O)O)CC3)CCN1c1ccc(C(F)(F)F)cn1` (stereo not drawn) [Example 64, 6-[3-Ethyl-4-(5-trifluoromethyl-pyrdin-2-yl)-piperazine-1-sulfonyl]-indan-1-carboxylic acid], the EC50 in experiment [1], in experiment [2] and in experiment [3] was < 5 µM each time.
As to `C[C@@H]1CN(S(=O)(=O)c2ccc3c(c2)C(C(=O)O)CC3)C[C@H](C)N1c1ccc(C(F)(F)F)cn1` (stereo partly drawn) [Example 65, 6-[cis-3,5-dimethyl-4-(5-trifluoromethyl-pyrdin-2-yl)-piperazine-1-sulfonyl]-indan-1-carboxylic acid], the EC50 in experiment [1], in experiment [2] and in experiment [3] was < 5 µM throughout.
In the case of `O=C(O)C1CCc2ccc(S(=O)(=O)N3CC=C(c4ccc(C(F)(F)F)cn4)CC3)cc21` (stereo not drawn) [Example 66, 6-(5-Trifluoromethyl-3,6-dihydro-2H-|2,4|bipyridinyl-1-sulfonyl)-indan-1-carboxylic acid], the concentration for a half-maximal effect (EC50) in experiment [1] is < 5 µM; in experiment [2], < 5 µM; in experiment [3], 5 to 100 µM.
For the compound `O=C(O)C1CCc2ccc(S(=O)(=O)N3CCCN(c4ccc(C(F)(F)F)cn4)CC3)cc21` (stereo not drawn) [Example 67, 6-[4-(5-trifluoromethyl-pyridin-2-yl)-[1,4]diazepane-1-sulfonyl]-indan-1-carboxylic acid], the EC50 in experiment [1], in experiment [2] and in experiment [3] was < 5 µM throughout.
`C[C@H]1CN(c2ccc(C(F)(F)F)cn2)C[C@H](C)N1S(=O)(=O)c1ccc2c(c1)C(C(=O)O)CC2` (stereo partly drawn) [Example 68, 6-[trans-2,6-(S,S)-dimethyl-4-(5-trifluoromethyl-pyrdin-2-yl)-piperazine-1-sulfonyl]-indan-1-carboxylic acid]: the EC50 in experiment [1], in experiment [2] and in experiment [3] was < 5 µM in each case.
Regarding `C[C@H]1CN(S(=O)(=O)c2ccc3c(c2)C(C(=O)O)CC3)C[C@H](C)N1c1ccc(C(F)(F)F)cn1` (stereo partly drawn) [Example 69, 6-[trans-3,5-(S,S)-dimethyl-4-(5-trifluoromethyl-pyrdin-2-yl)-piperazine-1-sulfonyl]-indan-1-carboxylic acid], the EC50 in experiment [1], in experiment [2] and in experiment [3] was < 5 µM each time.
As to `C[C@@H]1CN(c2ccc(C(F)(F)F)c(F)c2)C[C@H](C)N1S(=O)(=O)c1ccc2c(c1)C(C(=O)O)CC2` (stereo partly drawn) [Example 70, 6-[cis-2,6-dimethyl-4-(3-fluoro-4-trifluoromethyl-phenyl)-piperazine-1-sulfonyl]-indan-1-carboxylic acid], the values for the EC50 in experiment [1], in experiment [2] and in experiment [3] were < 5 µM, < 5 µM and 5 to 100 µM, respectively.
Regarding `O=C(O)C1CCc2ccc(S(=O)(=O)N3CCN(c4ccc(OC(F)(F)F)cc4)CC3)cc21` (stereo not drawn) [Example 71, 6-[4-(4-trifluoromethoxy-phenyl)-piperazine-1-sulfonyl]-indan-1-carboxylic acid], the EC50 in experiment [1], in experiment [2] and in experiment [3] was < 5 µM in each case.
Take `CCC1CN(c2ccc(C(F)(F)F)cn2)CCN1S(=O)(=O)c1ccc2c(c1)C(C(=O)O)CC2` (stereo not drawn) [Example 72, 6-[2-ethyl-4-(5-trifluoromethyl-pyridin-2-yl)-piperazine-1-sulfonyl]-indan-1-carboxylic acid]: the EC50 in experiment [1], in experiment [2] and in experiment [3] was < 5 µM each time.
Take `CC1(C)CN(S(=O)(=O)c2ccc3c(c2)C(C(=O)O)CC3)CCN1c1ccc(C(F)(F)F)cn1` (stereo not drawn) [Example 73, 6-[3,3-dimethyl-4-(5-trifluoromethyl-pyridin-2-yl)-piperazine-1-sulfonyl]-indan-1-carboxylic acid]: the figures for the EC50 in experiment [1], in experiment [2] and in experiment [3] were 5 to 100 µM, < 5 µM and < 5 µM, respectively.
With `O=C(O)C1CCc2ccc(S(=O)(=O)N3CCN(c4ccc(C(F)(F)F)c(Cl)c4)CC3)cc21` (stereo not drawn) [Example 74, 6-[4-(3-chloro-4-trifluoromethyl-phenyl)-piperazine-1-sulfonyl]-indan-1-carboxylic acid], the concentration for a half-maximal effect (EC50) in experiment [1], in experiment [2] and in experiment [3] was < 5 µM throughout.
Consider `C[C@@H]1CN(c2ccc(C(F)(F)F)cn2)C[C@H](C)N1S(=O)(=O)c1cccc2c1CC(C(=O)O)C2` (stereo partly drawn) [Example 77, 4-[cis-2,6-dimethyl-4-(5-trifluoromethyl-pyridin-2-yl)-piperazine-1-sulfonyl]-indan-2-carboxylic acid], for which the EC50 in experiment [1] was > 100 µM; in experiment [2] it was < 5 µM; in experiment [3], > 100 µM.
As for `O=C(O)C1CCc2ccc(S(=O)(=O)N3C4CCC3CN(c3ccc(C(F)(F)F)cn3)C4)cc21` (stereo not drawn) [Example 78], the concentration giving a half-maximal response (EC50) is 5 to 100 µM in experiment [1], < 5 µM in experiment [2] and 5 to 100 µM in experiment [3].
Turning to `C[C@@H]1CN(c2ccc(OC(F)(F)F)cc2)C[C@H](C)N1S(=O)(=O)c1cccc2c1CC(C(=O)O)C2` (stereo partly drawn) [Example 79, 4-[cis-2,6-dimethyl-4-(4-trifluoromethoxy-phenyl)-piperazine-1-sulfonyl]-indan-2-carboxylic acid], the EC50 in experiment [1] was > 100 µM; in experiment [2] it was < 5 µM; in experiment [3], > 100 µM.
For `C[C@@H]1CN(c2ccc(C(F)(F)F)c(F)c2)C[C@H](C)N1S(=O)(=O)c1cccc2c1CC(C(=O)O)C2` (stereo partly drawn) [Example 83, 4-[4-(3-fluoro-4-trifluoromethyl-phenyl)-cis-2,6-dimethyl-piperazine-1-sulfonyl]-indan-2-carboxylic acid], the EC50 is 5 to 100 µM in experiment [1], < 5 µM in experiment [2] and 5 to 100 µM in experiment [3].
With `C[C@@H]1CN(c2ccc(OC(F)(F)F)cc2)C[C@H](C)N1S(=O)(=O)c1ccc2c(c1)CC(C(=O)O)C2` (stereo partly drawn) [Example 84, 5-[2,6-cis-dimethyl-4-(4-trifluoromethoxy-phenyl)-piperazine-1-sulfonyl]-indan-2-carboxylic acid], the EC50 in experiment [1] was > 100 µM; in experiment [2] it was 5 to 100 µM; in experiment [3], 5 to 100 µM.

For the origin of these results see patent publication US7517884B2 (Kalypsys Inc., priority 1998, dated 2009).
